Assay results reported in the CheMixHub viscosity set.
“And” between values parts separate entries of the source, which are not always exact repeats. Equal entries are not always repeated. ± gives the uncertainty stated by the source.

Assay: xn = mol fraction of the nth substance listed

CS(C)=O + O showed a viscosity (303.15 K, 101 kPa, x1 = 0.01869) of 0.91 ± 0.27 mPa·s, a viscosity (303.15 K, 101 kPa, x1 = 0.0406) of 1.05 ± 0.32 mPa·s and a viscosity (303.15 K, 101 kPa, x1 = 0.05) of 1.176 ± 0.011 mPa·s. It also gave a viscosity (303.15 K, 101 kPa, x1 = 0.15) of 2.183 ± 0.021 mPa·s, a viscosity (303.15 K, 101 kPa, x1 = 0.25) of 2.978 ± 0.034 mPa·s and a viscosity (303.15 K, 101 kPa, x1 = 0.35) of 3.26 ± 0.043 mPa·s. For the same compound, the viscosity (303.15 K, 101 kPa, x1 = 0.48) was 2.884 ± 0.045 mPa·s, the viscosity (303.15 K, 101 kPa, x1 = 0.73) was 2.115 ± 0.044 mPa·s and the viscosity (303.15 K, 101.3 kPa, x1 = 0.012) was 0.88 ± 0.023 mPa·s. It also gave a viscosity (303.15 K, 101.3 kPa, x2 = 0.1906) of 2.071 ± 0.054 mPa·s, a viscosity (303.15 K, 101.3 kPa, x2 = 0.3252) of 2.348 ± 0.061 mPa·s and a viscosity (303.15 K, 101.3 kPa, x2 = 0.5203) of 2.958 ± 0.077 mPa·s. The viscosity (303.15 K, 101.3 kPa, x2 = 0.6501) was 3.218 ± 0.084 mPa·s, the viscosity (303.15 K, 101.3 kPa, x2 = 0.743) was 2.942 ± 0.077 mPa·s and the viscosity (303.15 K, 101.3 kPa, x2 = 0.8183) was 2.402 ± 0.063 mPa·s. The viscosity (303.15 K, 101.3 kPa, x2 = 0.8668) was 1.941 ± 0.051 mPa·s, the viscosity (303.15 K, 101.3 kPa, x2 = 0.9101) was 1.536 ± 0.04 mPa·s and the viscosity (303.15 K, 101.3 kPa, x2 = 0.9751) was 0.981 ± 0.026 mPa·s. It also gave a viscosity (308.15 K, 101 kPa, x1 = 0.05) of 1.065 ± 0.01 mPa·s, a viscosity (308.15 K, 101 kPa, x1 = 0.15) of 1.942 ± 0.02 mPa·s and a viscosity (308.15 K, 101 kPa, x1 = 0.25) of 2.606 ± 0.03 mPa·s. The viscosity (308.15 K, 101 kPa, x1 = 0.35) was 2.84 ± 0.037 mPa·s, the viscosity (308.15 K, 101 kPa, x1 = 0.48) was 2.512 ± 0.039 mPa·s and 2.733 ± 0.081 mPa·s and the viscosity (308.15 K, 101 kPa, x1 = 0.73) was 1.86 ± 0.038 mPa·s. For the same compound, the viscosity (308.15 K, 101.3 kPa, x1 = 0.012) was 0.792 ± 0.021 mPa·s, the viscosity (308.15 K, 101.3 kPa, x2 = 0.1906) was 1.876 ± 0.049 mPa·s and the viscosity (308.15 K, 101.3 kPa, x2 = 0.3252) was 2.109 ± 0.055 mPa·s. For the same compound, the viscosity (308.15 K, 101.3 kPa, x2 = 0.5203) was 2.607 ± 0.068 mPa·s, the viscosity (308.15 K, 101.3 kPa, x2 = 0.6501) was 2.802 ± 0.073 mPa·s and the viscosity (308.15 K, 101.3 kPa, x2 = 0.743) was 2.558 ± 0.067 mPa·s. The viscosity (308.15 K, 101.3 kPa, x2 = 0.8183) was 2.097 ± 0.055 mPa·s, the viscosity (308.15 K, 101.3 kPa, x2 = 0.8668) was 1.708 ± 0.044 mPa·s and the viscosity (308.15 K, 101.3 kPa, x2 = 0.9101) was 1.36 ± 0.035 mPa·s. The viscosity (308.15 K, 101.3 kPa, x2 = 0.9455) was 1.091 ± 0.028 mPa·s, the viscosity (308.15 K, 101.3 kPa, x2 = 0.9751) was 0.879 ± 0.023 mPa·s and the viscosity (313.15 K, 101 kPa, x1 = 0.01) was 0.72 ± 0.02 mPa·s. For the same compound, the viscosity (313.15 K, 101 kPa, x1 = 0.01869) was 0.73 ± 0.22 mPa·s, the viscosity (313.15 K, 101 kPa, x1 = 0.025) was 0.79 ± 0.02 mPa·s and the viscosity (313.15 K, 101 kPa, x1 = 0.039) was 0.87 ± 0.02 mPa·s. For the same compound, the viscosity (313.15 K, 101 kPa, x1 = 0.0406) was 0.85 ± 0.26 mPa·s, the viscosity (313.15 K, 101 kPa, x1 = 0.05) was 0.981 ± 0.008 mPa·s and the viscosity (313.15 K, 101 kPa, x1 = 0.055) was 0.96 ± 0.03 mPa·s. It also gave a viscosity (313.15 K, 101 kPa, x1 = 0.071) of 1.07 ± 0.03 mPa·s, a viscosity (313.15 K, 101 kPa, x1 = 0.09) of 1.19 ± 0.03 mPa·s and a viscosity (313.15 K, 101 kPa, x1 = 0.11) of 1.33 ± 0.03 mPa·s. The viscosity (313.15 K, 101 kPa, x1 = 0.13) was 1.5 ± 0.04 mPa·s, the viscosity (313.15 K, 101 kPa, x1 = 0.15) was 1.704 ± 0.019 mPa·s and the viscosity (313.15 K, 101 kPa, x1 = 0.16) was 1.69 ± 0.04 mPa·s. For the same compound, the viscosity (313.15 K, 101 kPa, x1 = 0.19) was 1.89 ± 0.05 mPa·s.
